Active and inactive are the calls of the source. No cut-off for these calls is given here.
What was measured:
Aspergillus niger [1] = assay: Antifungal activity against Aspergillus niger ATCC 10949 at 40 ug/disk after 72 hr by disk diffusion method; format: functional, organism-based
Aspergillus niger [2] = assay: Antifungal activity against Aspergillus niger ATCC 10949 at 20 ug/disk after 72 hr by disk diffusion method; format: functional, organism-based
Rhodotorula mucilaginosa [3] = assay: Antifungal activity against Rhodotorula mucilaginosa at 140 ug/disk after 48 hr by disk diffusion method; format: functional
Rhodotorula mucilaginosa [4] = assay: Antifungal activity against Rhodotorula mucilaginosa at 20 ug/disk after 48 hr by disk diffusion method; format: functional
Rhodotorula mucilaginosa [5] = assay: Antifungal activity against Rhodotorula mucilaginosa at 40 ug/disk after 48 hr by disk diffusion method; format: functional
Candida albicans [6] = assay: Antifungal activity against Candida albicans ATCC 10231 at 140 ug/disk after 48 hr by disk-diffusion method; format: functional; conditions: ATCC 10231, 48 h, read-out: DIZ
Candida albicans [7] = assay: Antifungal activity against Candida albicans ATCC 10231 at 40 ug/disk after 48 hr by disk-diffusion method; format: functional; conditions: ATCC 10231, 48 h, read-out: DIZ
Candida albicans [8] = assay: Antifungal activity against Candida albicans ATCC 10231 at 20 ug/disk after 48 hr by disk-diffusion method; format: functional
Proteus vulgaris [9] = assay: Antibacterial activity against Proteus vulgaris NRRL-B-123 at 140 ug/disk after 24 hr by disk diffusion method; format: functional, organism-based
Aspergillus niger [10] = assay: Antifungal activity against Aspergillus niger ATCC 10949 at 140 ug/disk after 72 hr by disk diffusion method; format: functional
Proteus vulgaris [11] = assay: Antibacterial activity against Proteus vulgaris NRRL-B-123 at 40 ug/disk after 24 hr by disk diffusion method; format: functional, organism-based
Proteus vulgaris [12] = assay: Antibacterial activity against Proteus vulgaris NRRL-B-123 at 20 ug/disk after 24 hr by disk diffusion method; format: functional, organism-based
Pseudomonas aeruginosa [13] = assay: Antibacterial activity against Pseudomonas aeruginosa ATCC 27853 at 140 ug/disk after 24 hr by disk-diffusion method; format: functional, organism-based
Pseudomonas aeruginosa [14] = assay: Antibacterial activity against Pseudomonas aeruginosa ATCC 27853 at 40 ug/disk after 24 hr by disk-diffusion method; format: functional, organism-based
Pseudomonas aeruginosa [15] = assay: Antibacterial activity against Pseudomonas aeruginosa ATCC 27853 at 20 ug/disk after 24 hr by disk-diffusion method; format: functional, organism-based
Escherichia coli [16] = assay: Antibacterial activity against Escherichia coli ATCC 25922 at 40 ug/disk after 24 hr by disk-diffusion method; format: functional
Escherichia coli [17] = assay: Antibacterial activity against Escherichia coli ATCC 25922 at 140 ug/disk after 24 hr by disk-diffusion method; format: functional
Nocardia [18] = assay: Antibacterial activity against Nocardia canis at 140 ug/disk after 24 hr by disk diffusion method; format: functional
Escherichia coli [19] = assay: Antibacterial activity against Escherichia coli ATCC 25922 at 20 ug/disk after 24 hr by disk-diffusion method; format: functional
Nocardia [20] = assay: Antibacterial activity against Nocardia canis at 40 ug/disk after 24 hr by disk diffusion method; format: functional
Nocardia [21] = assay: Antibacterial activity against Nocardia canis at 20 ug/disk after 24 hr by disk diffusion method; format: functional, organism-based
[22] = system: Staphylococcus epidermidis; assay: Antibacterial activity against Staphylococcus epidermidis ATCC 12228 at 140 ug/disk after 24 hr by disk diffusion method; format: functional
[23] = system: Staphylococcus epidermidis; assay: Antibacterial activity against Staphylococcus epidermidis ATCC 12228 at 40 ug/disk after 24 hr by disk diffusion method; format: functional
[24] = system: Staphylococcus epidermidis; assay: Antibacterial activity against Staphylococcus epidermidis ATCC 12228 at 20 ug/disk after 24 hr by disk diffusion method; format: functional, organism-based
Bacillus cereus [25] = assay: Antibacterial activity against Bacillus cereus NRRL 3711 at 140 ug/disk after 24 hr by disk diffusion method; format: functional
Bacillus cereus [26] = assay: Antibacterial activity against Bacillus cereus NRRL 3711 at 40 ug/disk after 24 hr by disk diffusion method; format: functional
Bacillus cereus [27] = assay: Antibacterial activity against Bacillus cereus NRRL 3711 at 20 ug/disk after 24 hr by disk diffusion method; format: functional
Staphylococcus aureus [28] = assay: Antibacterial activity against Staphylococcus aureus ATCC 25923 at 140 ug/disc after 24 hr by disk diffusion method; format: functional
Staphylococcus aureus [29] = assay: Antibacterial activity against Staphylococcus aureus ATCC 25923 at 40 ug/disc after 24 hr by disk diffusion method; format: functional
Staphylococcus aureus [30] = assay: Antibacterial activity against Staphylococcus aureus ATCC 25923 at 20 ug/disc after 24 hr by disk diffusion method; format: functional

Structure (SMILES) | diameter of the inhibition zone (DIZ) (Aspergillus niger [1]) | diameter of the inhibition zone (DIZ) (Aspergillus niger [2]) | diameter of the inhibition zone (DIZ) (Rhodotorula mucilaginosa [4]) | diameter of the inhibition zone (DIZ) (Rhodotorula mucilaginosa [5]) | zone of inhibition at 140 µg/disc (Candida albicans [6]) | zone of inhibition at 40 µg/disc (Candida albicans [7]) | diameter of the inhibition zone (DIZ) (Candida albicans [8]) | diameter of the inhibition zone (DIZ) (Proteus vulgaris [9]) | diameter of the inhibition zone (DIZ) (Aspergillus niger [10]) | diameter of the inhibition zone (DIZ) (Proteus vulgaris [11]) | diameter of the inhibition zone (DIZ) (Proteus vulgaris [12]) | diameter of the inhibition zone (DIZ) (Pseudomonas aeruginosa [13]) | diameter of the inhibition zone (DIZ) (Pseudomonas aeruginosa [14]) | diameter of the inhibition zone (DIZ) (Pseudomonas aeruginosa [15]) | diameter of the inhibition zone (DIZ) (Escherichia coli [16]) | diameter of the inhibition zone (DIZ) (Escherichia coli [17]) | diameter of the inhibition zone (DIZ) (Nocardia [18]) | diameter of the inhibition zone (DIZ) (Escherichia coli [19]) | diameter of the inhibition zone (DIZ) (Nocardia [20]) | diameter of the inhibition zone (DIZ) (Nocardia [21]) | further results
COc1ccc(C2CC(=O)C3=C(C2)OC2=C(C(=O)CC(c4ccc(OC)c(OC)c4)C2)C3c2ccc(C3C4=C(CC(c5ccc(OC)c(OC)c5)CC4=O)OC4=C3C(=O)CC(c3ccc(OC)c(OC)c3)C4)cc2)cc1OC (stereo not given) | inactive | inactive | inactive | inactive | 7 mm | 7 mm | inactive | inactive | inactive | inactive | inactive | inactive | inactive | inactive | inactive | inactive | inactive | inactive | inactive | inactive | diameter of the inhibition zone (DIZ) (Rhodotorula mucilaginosa [3]): inactive; diameter of the inhibition zone (DIZ) [22]: inactive; diameter of the inhibition zone (DIZ) [23]: inactive; diameter of the inhibition zone (DIZ) [24]: inactive; diameter of the inhibition zone (DIZ) (Bacillus cereus [25]): inactive; diameter of the inhibition zone (DIZ) (Bacillus cereus [26]): inactive; diameter of the inhibition zone (DIZ) (Bacillus cereus [27]): inactive; diameter of the inhibition zone (DIZ) (Staphylococcus aureus [28]): inactive; diameter of the inhibition zone (DIZ) (Staphylococcus aureus [29]): inactive; diameter of the inhibition zone (DIZ) (Staphylococcus aureus [30]): inactive
CC1(C)CC(=O)C2=C(C1)OC1=C(C(=O)CC(C)(C)C1)C2c1ccc(C2C3=C(CC(C)(C)CC3=O)OC3=C2C(=O)CC(C)(C)C3)cc1 | inactive | inactive | inactive | inactive | 9 mm | 9 mm | inactive | inactive | inactive | inactive | inactive | inactive | inactive | inactive | inactive | inactive | inactive | inactive | inactive | inactive | zone of inhibition at 140 µg/disc (Rhodotorula mucilaginosa [3]; read-out: DIZ): 9 mm; diameter of the inhibition zone (DIZ) [22]: inactive; diameter of the inhibition zone (DIZ) [23]: inactive; diameter of the inhibition zone (DIZ) [24]: inactive; zone of inhibition at 140 µg/disc (Bacillus cereus [25]; NRRL 3711, 24 h, read-out: DIZ): 7 mm; diameter of the inhibition zone (DIZ) (Bacillus cereus [26]): inactive; diameter of the inhibition zone (DIZ) (Bacillus cereus [27]): inactive; diameter of the inhibition zone (DIZ) (Staphylococcus aureus [28]): inactive; diameter of the inhibition zone (DIZ) (Staphylococcus aureus [29]): inactive; diameter of the inhibition zone (DIZ) (Staphylococcus aureus [30]): inactive

From ChEMBL document CHEMBL3044875, “Synthesis and antimicrobial activity of some bisoctahydroxanthene-1,8-dione derivatives” (2011)
